Data set [1] addresses T1, Amylin receptor AMY3; CALCR/RAMP3 (Homo sapiens, UniProt O60896+P30988).
T1 sequence (P30988 whole entry): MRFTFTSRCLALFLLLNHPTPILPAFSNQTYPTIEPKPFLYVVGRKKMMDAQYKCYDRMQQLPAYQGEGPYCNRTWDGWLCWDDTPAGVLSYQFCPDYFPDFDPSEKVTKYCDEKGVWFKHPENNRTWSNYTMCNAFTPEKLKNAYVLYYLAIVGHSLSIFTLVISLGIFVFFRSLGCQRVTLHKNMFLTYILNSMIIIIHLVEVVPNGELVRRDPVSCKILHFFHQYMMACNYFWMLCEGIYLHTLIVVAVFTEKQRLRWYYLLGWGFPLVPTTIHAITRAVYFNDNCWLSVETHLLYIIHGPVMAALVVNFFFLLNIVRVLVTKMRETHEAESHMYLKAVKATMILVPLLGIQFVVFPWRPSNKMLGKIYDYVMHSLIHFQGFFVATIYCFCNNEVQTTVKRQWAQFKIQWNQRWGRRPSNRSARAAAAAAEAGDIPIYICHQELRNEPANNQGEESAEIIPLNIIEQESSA
T1 sequence (O60896 whole entry): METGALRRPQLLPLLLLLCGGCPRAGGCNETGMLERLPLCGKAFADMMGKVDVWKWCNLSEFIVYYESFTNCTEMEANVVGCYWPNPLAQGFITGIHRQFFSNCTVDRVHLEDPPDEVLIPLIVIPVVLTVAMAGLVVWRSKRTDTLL
As to the kind of experiment: Displacement of [125I]-labeled rat amylin from human amylin receptor expressed in BHK tkts13 whole cells co-expressing RAMP3 incubated for 60 mins by scintillation proximity assay. The format is cell-based. (Displacement assays read how much labelled ligand stays bound in the presence of the test substance.)

The nature of data set [2]: Solubility in 100 mM bistrispropane buffer at pH 6.5 incubated for 18 hrs by UPLC analysis. It counts as physicochemical.
In data set [3] the target is T2, Calcitonin receptor (Homo sapiens, UniProt P30988).
T2 sequence (P30988 whole entry): T1 sequence (P30988 whole entry)
As to the kind of experiment: Agonist activity at human calcitonin receptor expressed in BHK570 cells assessed as increase in intracellular cAMP concentration incubated for 3 hrs in presence of 10% FBS by CRE luciferase reporter gene assay. It counts as functional, cell-based. For orientation: Reporter assays use an easily measured gene product as a stand-in for the process of interest.

The nature of data set [4]: Solubility in 100 mM bistrispropane buffer at pH 6.0 incubated for 18 hrs by UPLC analysis. It counts as physicochemical.
The target in data set [5] is T2, Calcitonin receptor. The data set can be described thus: Agonist activity at human calcitonin receptor expressed in BHK570 cells assessed as increase in intracellular cAMP concentration incubated for 3 hrs in absence of albumin by CRE luciferase reporter gene assay. The format is functional, cell-based.
Data set [6] is described as follows: Solubility in 100 mM glycylglycine buffer at pH 4.0 incubated for 18 hrs by UPLC analysis. It counts as physicochemical.
Data set [7] is described as follows: Solubility in 100 mM bistrispropane buffer at pH 8.0 incubated for 18 hrs by UPLC analysis. The format is physicochemical.
The nature of data set [8]: Solubility in 100 mM glycylglycine buffer at pH 3.0 incubated for 18 hrs by UPLC analysis. It counts as physicochemical.
Data set [9] can be described thus: Solubility in 100 mM glycylglycine buffer at pH 5.0 incubated for 18 hrs by UPLC analysis. It counts as physicochemical.
Data set [10] in a line: Solubility in 100 mM bistrispropane buffer at pH 7.5 incubated for 18 hrs by UPLC analysis. The format is physicochemical.
The nature of data set [11]: Solubility in 100 mM bistrispropane buffer at pH 7.0 incubated for 18 hrs by UPLC analysis. The format is physicochemical.
In data set [12] the target is T1, Amylin receptor AMY3; CALCR/RAMP3. As to the kind of experiment: Agonist activity at human amylin receptor expressed in BHK570 cells co-expressing RAMP3 assessed as increase in intracellular cAMP concentration incubated for 3 hrs in absence of albumin by CRE luciferase reporter gene assay. It counts as functional, cell-based.

By IC50 is commonly meant the point on the concentration scale where inhibition reaches its midpoint. In general, solubility refers to how much of the substance goes into solution per volume. Low readings indicate little dissolved substance, high ones much dissolved substance. For orientation: EC50 means the concentration giving half of the maximal effect.

Numbered stars: 1 amine (or outer) side, 2 acyl side, 3 side chain; on linkers, the order of the positions; unused ones are H or OH. Peptide text beside a SMILES is read from it. * marks the point of attachment. C20 diacid = O=C(O)CCCCCCCCCCCCCCCCCCC(=O)*; C18 diacid = O=C(O)CCCCCCCCCCCCCCCCC(=O)*; γGlu = O=C(O)[C@H](CCC(=O)[*:2])N[*:1]

As to `CC(C)C[C@H](NC(=O)[C@H](CCCNC(=N)N)NC(=O)CNC(=O)[C@H](CC(C)C)NC(=O)[C@@H](NC(=O)[C@H](C)NC(=O)[C@@H](NC(=O)[C@@H](NC(=O)[C@H](CC(C)C)NC(=O)[C@H](CCC(=O)O)NC(=O)[C@H](CO)NC(=O)[C@H](C)NC(=O)CC[C@H](NC(=O)CCCCCCCCCCCCCCCCC(=O)O)C(=O)O)[C@@H](C)O)[C@@H](C)O)C(C)C)C(=O)N[C@@H](CCC(=O)O)C(=O)N[C@@H](C)C(=O)N[C@@H](CCC(=O)O)C(=O)N[C@@H](CC(C)C)C(=O)N[C@@H](Cc1cnc[nH]1)C(=O)N[C@@H](CCC(=O)O)C(=O)N[C@@H](CC(C)C)C(=O)N[C@H](C(=O)N[C@H](C(=O)N[C@@H](CC(C)C)C(=O)N1CCC[C@H]1C(=O)N[C@@H](CCCNC(=N)N)C(=O)N[C@H](C(=O)N[C@@H](CCC(=O)O)C(=O)N[C@H](C(=O)NCC(=O)N[C@H](C(=O)NCC(=O)N[C@H](C(=O)N1CCC[C@H]1C(N)=O)[C@@H](C)O)[C@@H](C)O)[C@@H](C)O)[C@@H](C)O)[C@@H](C)O)[C@@H](C)O` ({C18 diacid-γGlu}-ASELTTAVLGRLEAELHELTTLPRTETGTGTP-NH2), in data set [1], the IC50 was 19.7 nM. Further, the solubility at 18 h in data set [2], in data set [4], in data set [6], in data set [7], in data set [8] and in data set [9] was at least 200 µM throughout. Further, the solubility at 18 h in data set [10] and in [11] was at least 200 µM each time. Besides, the half-maximal effective concentration (EC50) is 0.031 nM in [3] and 0.066 nM in data set [5].

With `CC(C)C[C@H](NC(=O)[C@H](C)NC(=O)[C@H](C)NC(=O)[C@@H](NC(=O)[C@H](CO)NC(=O)[C@H](CC(C)C)NC(=O)[C@H](CCC(=O)O)NC(=O)[C@H](CO)NC(=O)[C@H](C)NC(=O)CC[C@H](NC(=O)CCCCCCCCCCCCCCCCCCC(=O)O)C(=O)O)[C@@H](C)O)C(=O)NCC(=O)N[C@@H](Cc1cnc[nH]1)C(=O)N[C@@H](CC(C)C)C(=O)N[C@@H](CO)C(=O)N[C@@H](C)C(=O)N[C@@H](CCC(=O)O)C(=O)N[C@@H](CC(C)C)C(=O)N[C@@H](Cc1cnc[nH]1)C(=O)N[C@@H](CCC(=O)O)C(=O)N[C@@H](CC(C)C)C(=O)N[C@@H](C)C(=O)N[C@H](C(=O)N[C@@H](CC(C)C)C(=O)N1CCC[C@H]1C(=O)N[C@@H](Cc1cnc[nH]1)C(=O)N[C@H](C(=O)N[C@@H](CCC(=O)O)C(=O)N[C@H](C(=O)NCC(=O)N[C@H](C(=O)NCC(=O)N[C@H](C(=O)N1CCC[C@H]1C(N)=O)[C@@H](C)O)[C@@H](C)O)[C@@H](C)O)[C@@H](C)O)[C@@H](C)O` ({C20 diacid-γGlu}-ASELSTAALGHLSAELHELATLPHTETGTGTP-NH2), in data set [1], the IC50 was 1.51 nM. The EC50 in data set [12] is 0.064 nM; in data set [5], 0.024 nM. In addition, the solubility at 18 h in data set [2], in data set [4], in data set [6], in data set [7], in data set [8] and in [9] was at least 200 µM throughout. Besides, the solubility at 18 h in data set [10] and in [11] was at least 200 µM throughout.

As for `CC(C)C[C@H](NC(=O)[C@H](C)NC(=O)[C@H](C)NC(=O)[C@@H](NC(=O)[C@H](CO)NC(=O)[C@H](CC(C)C)NC(=O)[C@H](CCC(=O)O)NC(=O)[C@H](CO)NC(=O)[C@H](C)NC(=O)CC[C@H](NC(=O)CCCCCCCCCCCCCCCCCCC(=O)O)C(=O)O)[C@@H](C)O)C(=O)NCC(=O)N[C@@H](CCCNC(=N)N)C(=O)N[C@@H](CC(C)C)C(=O)N[C@@H](CO)C(=O)N[C@@H](C)C(=O)N[C@@H](CCC(=O)O)C(=O)N[C@@H](CC(C)C)C(=O)N[C@@H](Cc1cnc[nH]1)C(=O)N[C@@H](CCC(=O)O)C(=O)N[C@@H](CC(C)C)C(=O)N[C@@H](C)C(=O)N[C@H](C(=O)N[C@@H](Cc1ccc(O)cc1)C(=O)N1CCC[C@H]1C(=O)N[C@@H](CCCNC(=N)N)C(=O)N[C@H](C(=O)N[C@@H](CCC(=O)O)C(=O)N[C@H](C(=O)NCC(=O)N[C@@H](CO)C(=O)NCC(=O)N[C@@H](CO)C(=O)N1CCC[C@H]1C(=O)NCC(=O)O)[C@@H](C)O)[C@@H](C)O)[C@@H](C)O` ({C20 diacid-γGlu}-ASELSTAALGRLSAELHELATYPRTETGSGSPG-OH), the IC50 in [1] was 7.26 nM. The EC50 in [12] is 0.187 nM; in data set [3] it was 0.05 nM; in data set [5], 0.064 nM.

Turning to `CC(C)C[C@H](NC(=O)[C@H](C)NC(=O)[C@H](C)NC(=O)[C@@H](NC(=O)[C@H](CO)NC(=O)[C@H](CC(C)C)NC(=O)[C@H](CCC(=O)O)NC(=O)[C@H](CO)NC(=O)[C@H](C)NC(=O)CC[C@H](NC(=O)CCCCCCCCCCCCCCCCCCC(=O)O)C(=O)O)[C@@H](C)O)C(=O)NCC(=O)N[C@@H](CCCNC(=N)N)C(=O)N[C@@H](CC(C)C)C(=O)N[C@@H](CO)C(=O)N[C@@H](C)C(=O)N[C@@H](CCC(=O)O)C(=O)N[C@@H](CC(C)C)C(=O)N[C@@H](Cc1cnc[nH]1)C(=O)N[C@@H](CCC(=O)O)C(=O)N[C@@H](CC(C)C)C(=O)N[C@@H](C)C(=O)N[C@H](C(=O)N[C@@H](Cc1ccc(O)cc1)C(=O)N1CCC[C@H]1C(=O)N[C@@H](CCCNC(=N)N)C(=O)N[C@H](C(=O)N[C@@H](CCC(=O)O)C(=O)N[C@H](C(=O)NCC(=O)N[C@@H](CO)C(=O)NCC(=O)N[C@@H](CO)C(=O)N1CCC[C@H]1C(=O)N[C@@H](CCCCN)C(=O)O)[C@@H](C)O)[C@@H](C)O)[C@@H](C)O` ({C20 diacid-γGlu}-ASELSTAALGRLSAELHELATYPRTETGSGSPK-OH), the concentration for half-maximal inhibition (IC50) in data set [1] was 21 nM. Moreover, the EC50 in data set [12] was 0.239 nM; in data set [3] it was 0.053 nM.

Consider `CC(C)C[C@H](NC(=O)CNC(=O)[C@H](CO)NC(=O)[C@H](C)NC(=O)CC[C@H](NC(=O)CCCCCCCCCCCCCCCCCCC(=O)O)C(=O)O)C(=O)N[C@@H](CO)C(=O)N[C@H](C(=O)N[C@@H](C)C(=O)N[C@@H](C)C(=O)N[C@@H](CC(C)C)C(=O)NCC(=O)N[C@@H](CCCNC(=N)N)C(=O)N[C@@H](CC(C)C)C(=O)N[C@@H](CO)C(=O)N[C@H](C(=O)N[C@@H](CCC(=O)O)C(=O)N[C@@H](CC(C)C)C(=O)N[C@@H](Cc1cnc[nH]1)C(=O)N[C@@H](CCC(=O)O)C(=O)N[C@@H](CC(C)C)C(=O)N[C@@H](CCC(=O)O)C(=O)N[C@H](C(=O)N[C@@H](Cc1ccc(O)cc1)C(=O)N1CCC[C@H]1C(=O)N[C@@H](CCCNC(=N)N)C(=O)N[C@H](C(=O)N[C@@H](CCC(=O)O)C(=O)N[C@H](C(=O)NCC(=O)N[C@@H](CO)C(=O)NCC(=O)N[C@H](C(=O)N[C@@H](Cc1ccc(O)cc1)C(N)=O)[C@@H](C)O)[C@@H](C)O)[C@@H](C)O)[C@@H](C)O)[C@@H](C)O)[C@@H](C)O` ({C20 diacid-γGlu}-ASGLSTAALGRLSTELHELETYPRTETGSGTY-NH2), for which the half-maximal inhibitory concentration (IC50) in data set [1] was 0.431 nM. In addition, the values for the 50% effective concentration (EC50) in data set [12], in [3] and in [5] were 0.054 nM, 0.067 nM and 0.018 nM, respectively. Also, the solubility at 18 h in data set [2], in data set [4], in data set [7], in [8], in data set [10] and in [11] was at least 200 µM throughout.
